How the values were obtained:
Water solubility = format: physicochemical; details: for water solubility (product containing bound NH4+ and ammonium hydrocarbonate contaminations): before repeated ion exchange chromatography, m.p. 159-161 °C
[1] = Gelling of aqueous solutions (concentration-, time- and temperature-dependent); format: physicochemical; details: 5-10 mg/ml aqueous solution of the single component
Method: Water soluble primycin has a further very interesting characteristic. It has been observed that its aqueous solution spontaneously gellifies, the gelling time being dependent on the primycin content of the solution. As it appears from the curves of FIG. 1, the complete gelling of a 5-10 mg/ml aqueous primycin solution requires about 1-2 days, that of a 20-40 mg/ml primycin solution requires about 6-12 hours, whereas an aqueous primycin solution comprising more than 50 mg/ml of primycin completely gellifies even within 1-2 hours. The concentration-, time- and temperature-dependent gelling (polymerization) can be attributed presumably to the changes in orientation of the --OH groups in the molecule.
The gelling properties of the individual components of formulae (A1) and (A3) and those of the two-component mixture have also been examined. […] It can be assumed that this delay in gelling is connected with a change in conformation or with the orientation of the hydroxy groups.

Bacillus subtilis = test: Agar diffusion test, minimum inhibitory concentration (MIC) on Bacillus subtilis; format: cell-based, Bacillus subtilis ATCC 6633; details: for MIC: Table II, agar diffusion test on Bacillus subtilis; for biological activity (on Bacillus subtilis): preparation examples
Method: Thin layer chromatography was performed on a Kieselgel 60 DC Alufolien F254 plate utilizing the upper phase of a 38:2:10:50 v/v mixture of butanol, ethanol, acetic acid and water as solvent and a mixture of vanillin and sulfuric acid at 105° C. as detecting agent. Biological evaluation was performed by agar diffusion test on Bacillus subtilis.
Agar diffusion technique was applied for the biological evaluation of primycin. As test organism Bacillus subtilis ATCC 6633 was applied.
Bacillus subtilis ATCC 6633 was cultivated on a Schaeffer medium (Nutrient Broth No. 2/oxoid) with the following composition:
The solution was heated in a pressurized vessel for 30 minutes at a pressure of 1.5 atmospheres, thereafter the pE was adjusted to 7.0-7.2 with 5-6 drops of 10N sodium hydroxide solution, 90 ml portions of the solution were poured into cultivating dishes, and the portions were supplemented with 10 ml, each, of the following solutions:
a) 236 mg (10^-3 mole) of Ca(NO3)2. 4H2 O dissolved in 100 ml of distilled water, and
b) […] (10^-5 mole) of MnCl2.4H2 O dissolved in 100 ml of distilled water.
The titrating nutrient medium was prepared as follows:
5 g of meat extract (Beef Extract Difco), 0.5 g of peptone (Bacto Peptone Difco), 1 g of Na2 HPO4 and 0.1 g of KH2 PO4 were dissolved in 100 ml of distilled water, the solution was boiled for 2 hours, and then the pH was adjusted to 8. The warm solution was filtered, allowed to cool, the filtrate was diluted with 900 ml of distilled water, and 20 g of agar (Bacto Agar Difco), dissolved in a Koch pot, were added to 1 liter of the solution. The pH of the warm solution was checked. 100 ml portions of the resulting solution were filled into storage flasks and then heat treated for 20 minutes in a pressurized vessel under a pressure of 1.5 atmospheres. […]
Solutions containing 20-50 /ug/ml of active agent were prepared from the substances to be examined [starting water insoluble primycin; water soluble primycin; a mixture of the compounds of formulae (A1) and (A3); a compound of formula (A1); a compound of formula (A3)] in water or in a 1:1:2 v/v mixture of butanol, ethanol and water, and the resulting solutions were diluted with buffered distilled water (0.15 molar phosphate buffer, pH=7.6) to concentrations of 0.05-0.1, 0.5-1.0 and 2.0 /ug/ml. […] Thereafter the diameters of the diffusive extinction zones were measured in mm, the obtained values were plotted on a semi-logarithmic scale against the concentrations of the standard serial dilutions, and the activity values were determined by extrapolation.

SMILES | water solubility (product containing bound NH4+ and ammonium hydrocarbonate contaminations) (Water solubility) | water solubility (product containing bound NH4+ and ammonium hydrocarbonate contaminations) (Water solubility; listed as component of formula (A3)) [µg/mL] | Water solubility (Water solubility; water, listed as component of formula (A3)) | storage of aqueous solution without any observable change [1] | MIC (Bacillus subtilis) [µg/mL] | biological activity (on Bacillus subtilis) (Bacillus subtilis) | water solubility (in words) (Water solubility) | biological activity (on Bacillus subtilis) (Bacillus subtilis; listed as component of formula (A1))
CCCCC1C(=O)OC(C(C)C(O)CCCNC(=N)N)C(C)C=C(C)CCCCC(O)CC(O)CC(O)CC(O)CC(O)C(OC2OC(CO)C(O)C2O)C=C(C)C(O)CCCC(O)CCCC(O)CCC(C)C1O (stereo not shown) [Compound of formula (A3)] | about 5 mg/ml | 2000 to 6000 | about 50 mg/ml | can be stored for days (maximum for one week) without any observable change | 0.5 to 1.0 | 0.5-1 /ug/ml |  | 
CCCCC1C(=O)OC(C(C)C(O)CCCNC(=N)N)C(C)C=C(C)CCCCC(O)CC(O)CC(O)CC(O)CC(O)C(OC2OC(CO)C(O)C2O)C=C(C)C(O)CCCC(O)CCCC(O)CCC(C)C1O (stereo not shown) [Compound of formula (A1)] |  |  |  | can be stored for days (maximum for one week) without any observable change | 0.03 to 0.06 |  | well soluble in water | 0.03-0.06 /ug/ml
